Data published in PubChem BioAssay AID1963868 (Molecular Pharmacology Branch, DTP, NCI, 2024).

Test system: KRAS PDC tumor spheroids (HUVEC+MSC), viability
Assay: Anticancer human tumor 254851-301-R-J1-PDC patient-derived colon carcinoma cell line growth inhibition [KRAS2]
Settings: for IC50: curve of first compound; for viability, T/C: stronger effect = lower value
Text: Multicellular complex tumor spheroid response to RAS pathway inhibitors in combination with a targeted agents in patient-derived cell lines with oncogenic KRAS variants from multiple cancer types
A high-throughput screen of multi-cell type tumor spheroids was designed to identify active combinations of targeted small molecules and KRAS pathway inhibitors. Complex spheroids include a stromal component modeled by human endothelial cells (HUVEC) and fibroblasts modeled by human mesenchymal stem cells (MSCs). The concentration ranges selected for each drug and investigational agent were based upon clinically achievable concentrations if the clinical Cmax of the agent was known.
Compounds. The drugs and investigational agents: BI-3406 (NSC825286), BAY-293 (NSC824723), batoprotafib (TNO155; NSC825523), sotorasib (AMG 510; NSC818433), MRTX1257 (NSC819558), elimusertib (BAY 1895344; NSC800525), molibresib (GSK525762; NSC774829), temuterkib (LY3214996; NSC803410), venetoclax (NSC766270), alisertib (NSC759677), olaparib (NSC753686), talazoparib (NSC767125), erdafitinib (NSC781556), ipatasertib (NSC767898), cabozantinib (NSC761068), nintedanib (NSC756659), abemaciclib (NSC768073), docetaxel (NSC628503), trametinib (NSC758246), and sapanisertib (NSC764658) were obtained from the National Cancer Institute (NCI) Developmental Therapeutics Program Chemical Repository. The FDA-approved anticancer drug set is available from the Developmental Therapeutics Program. […] The stock solutions were prepared in dimethyl sulfoxide (DMSO, Sigma-Aldrich, St. Louis, MO, cat. D2650) at 800-fold the tested concentration and stored at -70 degrees C prior to their use. All drugs and investigational agents were tested over a range starting from a high concentration at or near the clinical Cmax and decreasing in half-log increments. If the clinical Cmax for an agent had not been determined, the highest concentration tested was 10 microM.
Cell Culture. All cells were maintained in an incubator at 37 degrees C and 5% CO2 with 95% humidity. The PDC lines were cultured according to standard operating procedures established by the NCI PDMR (https://pdmr.cancer.gov/sops/default.htm). Briefly, all PDCs were thawed and cultured in Matrigel-coated flasks prepared with a working solution of 1X Ham's F-12 nutrient mix, without supplementation (Invitrogen, Waltham, MA, cat. 11765054), 100 U/mL penicillin-streptomycin (Invitrogen, cat. 15140122), and 2.5% Matrigel (Corning Inc., Corning, NY, cat. 354248) for the first three passages. All PDCs were cultured in complete DMEM/F-12 media containing advanced DMEM/F-12 (Invitrogen, cat. 12634028), 4.9% defined fetal bovine serum, heat inactivated (HyClone Laboratories Inc., Logan, UT, cat. SH30070.03HI), 389 ng/mL hydrocortisone (Sigma-Aldrich, cat. H4001), 9.7 ng/mL human EGF recombinant protein (Invitrogen, cat. PHG0313), 23.4 microg/mL adenine (Sigma-Aldrich, cat. A2786), 97.3 U/mL penicillin-streptomycin (Invitrogen, cat. 15140122), 1.9 mM L-glutamine (Invitrogen, cat. 25030081), and 9.7 microM Y-27632 dihydrochloride (Tocris Bioscience, Bristol, United Kingdom, cat. 1254). The PDCs were cultured in complete DMEM/F12 media without 9.7 microM Y-27632 dihydrochloride for at least two passages prior to the screen. The established cell line HOP-62 was cultured in RPMI 1640 medium, HEPES (Invitrogen, cat. 22400105) with 10% defined fetal bovine serum (HyClone Laboratories Inc., cat. SH30070.03) and 2 mM L-glutamine (Invitrogen, cat. 25030081). The pooled donor HUVEC were cultured in endothelial cell growth medium 2 (PromoCell, Heidelberg, Germany, cat. C-22011) and the hMSC were cultured in mesenchymal stem cell growth medium 2 (PromoCell, cat. C-28009). For all experiments, HUVEC and hMSC were used at passages </=5, while the malignant cell lines were used at passages </=15. […]
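Also: spheroids exposed to compounds for seven days before readout.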
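For viability, T/C in this document: 100% = DMSO vehicle control luminescence of the spheroids.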

**Q.** Which results are given for `CC(=O)Nc1cccc(-n2c(=O)n(C3CC3)c(=O)c3c(Nc4ccc(I)cc4F)n(C)c(=O)c(C)c32)c1` + C=CC(=O)N1CCN(c2nc(OCC3CCCN3C)nc3c2CCN(c2cccc4cccc(C)c24)C3)CC1CC#N?
**A.** IC50 (second compound 0.0316 µM): 5.65 nM; IC50 (second compound 0.1 µM): 5.79 nM; IC50 (second compound 0.316 µM): 6.32 nM; IC50 (second compound 1 µM): 5.71 nM; IC50 (second compound 3.16 µM): 0.569 nM; viability, T/C (second compound 0.0316 µM, first compound 0.0001 µM): 103%; viability, T/C (second compound 0.0316 µM, first compound 0.000316 µM): 94.3%; viability, T/C (second compound 0.0316 µM, first compound 0.001 µM): 89.5%; viability, T/C (second compound 0.0316 µM, first compound 0.00316 µM): 72.1%; viability, T/C (second compound 0.0316 µM, first compound 0.01 µM): 29.2%; viability, T/C (second compound 0.0316 µM, first compound 0.0316 µM): 3.04%; viability, T/C (second compound 0.1 µM, first compound 0.0001 µM): 98.1%; viability, T/C (second compound 0.1 µM, first compound 0.000316 µM): 106%; viability, T/C (second compound 0.1 µM, first compound 0.001 µM): 95.4%; viability, T/C (second compound 0.1 µM, first compound 0.00316 µM): 77.9%; viability, T/C (second compound 0.1 µM, first compound 0.01 µM): 25.1%; viability, T/C (second compound 0.1 µM, first compound 0.0316 µM): 2.8%; viability, T/C (second compound 0.316 µM, first compound 0.0001 µM): 102%; viability, T/C (second compound 0.316 µM, first compound 0.000316 µM): 114%; viability, T/C (second compound 0.316 µM, first compound 0.001 µM): 93.5%; viability, T/C (second compound 0.316 µM, first compound 0.00316 µM): 84.9%; viability, T/C (second compound 0.316 µM, first compound 0.01 µM): 27.5%; viability, T/C (second compound 0.316 µM, first compound 0.0316 µM): 2.51%; viability, T/C (second compound 1 µM, first compound 0.0001 µM): 106%; viability, T/C (second compound 1 µM, first compound 0.000316 µM): 109%; viability, T/C (second compound 1 µM, first compound 0.001 µM): 92.6%; viability, T/C (second compound 1 µM, first compound 0.00316 µM): 83.4%; viability, T/C (second compound 1 µM, first compound 0.01 µM): 19.1%; viability, T/C (second compound 1 µM, first compound 0.0316 µM): 1.86%; viability, T/C (second compound 3.16 µM, first compound 0.0001 µM): 76.9%; viability, T/C (second compound 3.16 µM, first compound 0.000316 µM): 52.7%; viability, T/C (second compound 3.16 µM, first compound 0.001 µM): 40.3%; viability, T/C (second compound 3.16 µM, first compound 0.00316 µM): 39.5%; viability, T/C (second compound 3.16 µM, first compound 0.01 µM): 0.5%; viability, T/C (second compound 3.16 µM, first compound 0.0316 µM): 0.93%
